Assay results published in patent US9163003B2, “4-piperidinyl compounds for use as tankyrase inhibitors” (NOVARTIS AG, priority 2011, dated 2015).
Where two headings read alike, the source gives them in different places.

Columns and labels:
[1] = target: human tankyrase 1 PARP catalytic domain, TNKS1P (GST-tagged) (Homo sapiens (Human), UniProt O95271); assay: TNKS1 autoparsylation (AP) biochemical assay, LC/MS detection of nicotinamide; conditions: 20 nM enzyme, 250 μM NAD+, 60 min room temperature
Procedure: The human tankyrase 1 PARP catalytic domain, TNKS1P, was cloned into a pDONR221 vector using the Invitrogen Gateway Technology. This entry clone was then subcloned into the destination vector pDEST20 to obtain the N-terminal Glutathione S-transferase (GST)-tagged fusion protein.
The autoparsylation activity of the TNKS 1/2 or PARP1/2 enzymes was measured by the liquid chromatography-mass spectrometry (LC/MS) detection of nicotinamide as readout. Compound activity in inhibiting the TNKS and PARP autoparsylation was evaluated by IC50 measurements.

Axin2 protein = assay: Cellular ELISA assay for stabilizing the Axin2 protein in SW480 cells; type: cell-based; conditions: 24 hrs treatment, read-out: Axin AC50
Procedure: Compound activity in stabilizing the Axin2 protein was measured by Sandwich Enzyme-Linked Immuosorbent (ELISA) assay in the colorectal cell line SW480. 30,000 SW480 cells were seeded per well in 96-well plate and incubated overnight prior to compound treatment. Cells were then treated with compounds in 6-point dilution starting at 10 μM for 24 hrs. Cells were then washed with 100 μL of cold Phosphate Buffer Saline (PBS), and lysed in 125 μl of cold 1× lysis buffer (Cell Signaling Technology, 9803) supplemented with Protease inhibitor (Roche, 11836170) and Phosphatase inhibitors (Sigma, P2850, P5726). For the ELISA assay, anti Axin-2 capture antibody (Strategic Diagnostics) antibody was diluted to a concentration of 1 μg/ml (1:1000) in Carbonate Coating buffer, pH 9.2 (Sigma, C3041-50CAP). 100μ of the diluted anti Axin-2 capture antibody per well was then used to coat the 96-well ELISA plate (Thermo Electron Corp., MicroLite 1 flat bottom plate #7571) overnight at 4° C. Plates were then washed three times with 300 μl/well of wash solution, PBST20 (PBS+0.05% Tween), and blocked with 300 μl/well 1% BSA/PBS (BSA, Millipore Probumin #82-045-1) for 1.5 hours at room temperature while shaking gently. After blocking, plates were then washed three times with 300 μl/well of wash solution. 100 μL of prepared SW480 cell lysate was then added to each well and incubated at room temperature for 2 hours while shaking gently. After washing, 100 μL of Biotinylated anti-Axin2 antibody (CST, 2151) was added to each well and incubated room temperature for 2 hours. 100 μL of Streptavidin-HRP (R&D systems, DY998) diluted 1:200 in 1% BSA/PBS was then added in each well and incubate for 30 mins at R/T in the dark. Signal was detected by Chemiluminescence (Pierce SuperSignal ELISA Femto #3704), and measured on PerkinElmer Wallac 1420 plate reader.

[2] = test system: Non-small lung cancer ABC-1 cells; assay: Cellular proliferation assay, ABC-1 cells (CellTiter-Glo); type: cell-based; conditions: 3 days of compound treatment
Procedure: Non-small lung cancer ABC-1 cells were plated at 5000 cells per well in 96-well plates and treated with 8 serial compound dilutions starting from 10 μM as the highest concentration. Viable cells were measured after 3 days of compound treatment using the CellTiter-Glo assay (Promega, G7570). Assay was performed following the manufacture protocol.

Human PARP1 = Human PARP1 (Homo sapiens (Human), UniProt P09874); assay: PARP1 autoparsylation biochemical assay, LC/MS detection of nicotinamide; conditions: read-out: PARP1 IC50, 20 nM enzyme, 250 μM NAD+, 60 min room temperature
PARP2 = PARP2 (Mus musculus (Mouse), UniProt O88554); assay: PARP2 autoparsylation biochemical assay, LC/MS detection of nicotinamide; conditions: read-out: PARP2 Ic50, 20 nM enzyme, 250 μM NAD+, 60 min room temperature
[3] = target: tankyrase 2 protein PARP domain, TNKS2P (GST-tagged) (Homo sapiens (Human), UniProt Q9H2K2); assay: TNKS2 autoparsylation (AP) biochemical assay, LC/MS detection of nicotinamide; conditions: 20 nM enzyme, 250 μM NAD+, 60 min room temperature
[4] = test system: Wnt ligand-induced signaling; assay: Wnt-responsive Super-TOpFlash (STF) luciferase reporter gene assay in HEK293 cells; type: cell-based; conditions: Homo sapiens, Wnt3A condition medium induced
Procedure: Compound activity in inhibiting Wnt ligand-induced signaling was measured using a Wnt-responsive Super-TOpFlash (STF) luciferase reporter gene assay in HEK293 cells. On day 1 of the assay, cells were plated at a density of 8000 cells per well of 384-well plate in 25 μl medium containing 5% fetal bovine serum (FBS). On the second day, […] condition medium (CM) produced from mouse L cells was added to the cells to induce Wnt signaling, followed by addition of 5 μL of compounds each well in 10-point serial dilution. On the third day, the luciferase activity was measured by the Bright-Glo™ Luciferase Assay System following manufacture's protocol (Promega, E2620). The Inhibition was calculated as: (Maximum Wnt-induced signaling−Sample)/(Maximum Wnt-induced signaling−Background)*100. “Maximum Wnt-induced signaling” is the STF signal level induced by 20% Wnt3A CM without compound; and “Background” is the STF signal level without the addition of Wnt3A CM or compound.

Chain of PARP2 (O88554 whole entry, the tested form may be a part): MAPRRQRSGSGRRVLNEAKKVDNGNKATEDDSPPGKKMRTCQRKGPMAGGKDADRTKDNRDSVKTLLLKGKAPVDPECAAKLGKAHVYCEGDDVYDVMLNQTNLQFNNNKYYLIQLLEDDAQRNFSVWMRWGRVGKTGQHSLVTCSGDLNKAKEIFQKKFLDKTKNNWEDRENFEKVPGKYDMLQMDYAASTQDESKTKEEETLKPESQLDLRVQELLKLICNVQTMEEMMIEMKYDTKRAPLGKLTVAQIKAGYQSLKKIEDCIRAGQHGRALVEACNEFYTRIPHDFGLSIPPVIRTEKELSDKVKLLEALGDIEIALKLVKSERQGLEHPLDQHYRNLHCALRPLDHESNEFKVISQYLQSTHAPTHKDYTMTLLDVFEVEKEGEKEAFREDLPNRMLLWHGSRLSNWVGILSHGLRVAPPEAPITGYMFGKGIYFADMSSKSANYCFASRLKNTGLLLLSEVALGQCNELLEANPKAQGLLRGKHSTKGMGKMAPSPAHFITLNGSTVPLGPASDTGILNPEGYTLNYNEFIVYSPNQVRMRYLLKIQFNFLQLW
Chain of Human PARP1 (P09874 whole entry): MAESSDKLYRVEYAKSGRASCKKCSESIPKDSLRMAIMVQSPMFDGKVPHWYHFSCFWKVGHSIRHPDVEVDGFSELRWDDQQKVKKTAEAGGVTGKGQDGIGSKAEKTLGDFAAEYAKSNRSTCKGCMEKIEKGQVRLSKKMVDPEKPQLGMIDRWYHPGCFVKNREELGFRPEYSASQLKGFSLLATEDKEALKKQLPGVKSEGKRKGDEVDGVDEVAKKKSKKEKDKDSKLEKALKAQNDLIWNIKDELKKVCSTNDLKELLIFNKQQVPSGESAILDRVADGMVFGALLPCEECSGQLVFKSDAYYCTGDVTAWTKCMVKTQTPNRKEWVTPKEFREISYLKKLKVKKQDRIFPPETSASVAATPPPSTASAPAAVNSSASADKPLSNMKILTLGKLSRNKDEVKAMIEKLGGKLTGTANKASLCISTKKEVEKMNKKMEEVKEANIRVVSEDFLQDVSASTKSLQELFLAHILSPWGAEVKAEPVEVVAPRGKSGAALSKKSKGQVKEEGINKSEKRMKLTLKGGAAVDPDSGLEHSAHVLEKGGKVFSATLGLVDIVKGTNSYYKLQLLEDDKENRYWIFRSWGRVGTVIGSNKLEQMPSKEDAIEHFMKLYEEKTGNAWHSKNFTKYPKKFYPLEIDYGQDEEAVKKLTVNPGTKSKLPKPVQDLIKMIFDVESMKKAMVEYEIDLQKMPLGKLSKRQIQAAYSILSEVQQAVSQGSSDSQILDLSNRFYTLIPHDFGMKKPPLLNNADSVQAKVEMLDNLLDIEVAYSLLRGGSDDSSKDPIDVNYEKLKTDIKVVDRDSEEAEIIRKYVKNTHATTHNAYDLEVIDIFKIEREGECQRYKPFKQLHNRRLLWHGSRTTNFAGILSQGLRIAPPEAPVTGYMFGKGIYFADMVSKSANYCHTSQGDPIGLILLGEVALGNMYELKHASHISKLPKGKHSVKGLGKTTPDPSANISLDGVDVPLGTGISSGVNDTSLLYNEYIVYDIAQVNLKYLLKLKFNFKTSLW
Chain of tankyrase 2 protein PARP domain, TNKS2P (GST-tagged) (Q9H2K2 959-1164): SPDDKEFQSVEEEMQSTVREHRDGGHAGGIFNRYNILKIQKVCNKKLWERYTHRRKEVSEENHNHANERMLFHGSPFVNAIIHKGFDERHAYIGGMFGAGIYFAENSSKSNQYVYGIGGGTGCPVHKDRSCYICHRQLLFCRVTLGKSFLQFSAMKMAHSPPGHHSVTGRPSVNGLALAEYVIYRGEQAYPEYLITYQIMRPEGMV
Chain of human tankyrase 1 PARP catalytic domain, TNKS1P (GST-tagged) (O95271 1112-1317): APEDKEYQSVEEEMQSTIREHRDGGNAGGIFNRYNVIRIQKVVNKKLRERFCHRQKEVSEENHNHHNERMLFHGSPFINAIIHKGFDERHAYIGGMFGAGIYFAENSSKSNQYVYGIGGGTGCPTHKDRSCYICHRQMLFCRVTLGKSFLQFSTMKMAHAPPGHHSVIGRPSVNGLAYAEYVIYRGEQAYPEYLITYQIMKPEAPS

| SMILES | IC50 [1] [nM] | AC50 (Axin2 protein) [nM] | IC50 [2] [nM] | IC50 (Human PARP1) [nM] | IC50 (PARP2) [nM] | IC50 [3] [nM] | IC50 [4] [nM] | AC50 (Axin2 protein; Homo sapiens) [nM] | IC50 ([2]; Homo sapiens, 72 h) [nM] |
| --- | --- | --- | --- | --- | --- | --- | --- | --- | --- |
| COc1ccc(C(=O)C2CCN([C@@H]3CCN(CC(=O)Nc4nnc5n4CCS5)C3=O)CC2)cc1 (single isomer, unassigned) [Example 34] | 38 ± 1 | 78 ± 6 | 49 | > 19000 | 6300 ± 700 |  |  |  |  |
| COc1ccc(C(=O)C2CCN(C3CCN(Cc4nc5c(c(=O)[nH]4)COCC5)C3=O)CC2)cc1 (stereo not shown) [Example 2, 2-{3-[4-(4-Methoxy-benzoyl)-piperidin-1-yl]-2-oxo-pyrrolidin-1-ylmethyl}-3,5,7,8-tetrahydro-pyrano[4,3-d]pyrimidin-4-one] | 33 ± 7 |  |  | 9300 ± 1800 | 5400 ± 400 | 15 ± 4 | 1.3 ± 0.8 | 31.3 ± 3.6 | 30 ± 5 |
| COc1ccc(C(=O)C2CCN([C@H]3CCN(Cc4nc5c(c(=O)[nH]4)COCC5)C3=O)CC2)cc1 [Example 3, 2-{(S)-3-[4-(4-Methoxy-benzoyl)-piperidin-1-yl]-2-oxo-pyrrolidin-1-ylmethyl}-3,5,7,8-tetrahydro-pyrano[4,3-d]pyrimidin-4-one] | 12.8 ± 2.6 |  |  | 21000 ± 8700 | 4800 ± 600 | 9.5 ± 0.7 | 1.1 ± 0.4 | 6.3 ± 1.3 | 12 ± 3 |
| COc1ccc(C(=O)C2CCN(C3CCN(Cc4nc5c(cnn5C)c(=O)[nH]4)C3=O)CC2)cc1 (stereo not shown) [Example 6, 6-{3-[4-(4-Methoxy-benzoyl)-piperidin-1-yl]-2-oxo-pyrrolidin-1-ylmethyl}-1-methyl-1,3a,5,7a-tetrahydro-pyrazolo[3,4-d]pyrimidin-4-one] | 22 ± 4 |  |  | > 19000 | > 19000 | 25 ± 4 | 5.9 ± 1.5 | 23 ± 3 | 43 |
| O=C(c1ccc(Cl)cc1)C1CCN(C2CCN(Cc3nc4c(c(=O)[nH]3)COCC4)C2=O)CC1 (stereo not shown) [Example 9, 2-{3-[4-(4-Chloro-benzoyl)-piperidin-1-yl]-2-oxo-pyrrolidin-1-ylmethyl}-3,5,7,8-tetrahydro-pyrano[4,3-d]pyrimidin-4-one] | 30 ± 2 |  |  | 16600 ± 4200 | 4620 ± 950 | 23 ± 1 | 3 ± 3 | 52 ± 4 | 60 |
| O=C(c1ccc(F)cc1)C1CCN(C2CCN(Cc3nc4c(c(=O)[nH]3)COCC4)C2=O)CC1 (stereo not shown) [Example 10, 2-{3-[4-(4-Fluoro-benzoyl)-piperidin-1-yl]-2-oxo-pyrrolidin-1-ylmethyl}-3,5,7,8-tetrahydro-pyrano[4,3-d]pyrimidin-4-one] | 27 ± 1 |  |  | 23600 ± 2700 | 9200 ± 2200 | 6 ± 1 | 10 ± 1 | 257 ± 67 | 291 |
| O=C(c1ccc(F)cc1)C1CCN([C@H]2CCN(Cc3nc4c(c(=O)[nH]3)COCC4)C2=O)CC1 [Example 11, 2-{(S)-3-[4-(4-Fluoro-benzoyl)-piperidin-1-yl]-2-oxo-pyrrolidin-1-ylmethyl}-3,5,7,8-tetrahydro-pyrano[4,3-d]pyrimidin-4-one] | 37 ± 5 |  |  | 37400 ± 300 | 10200 ± 4200 | 17 ± 2 | 5 ± 5 | 132 ± 22 | 301 |
| COc1ccc(C(=O)C2CCN([C@H]3CCN(Cc4nc5c(c(=O)[nH]4)COCC5)C3=O)CC2)cc1C [Example 13, 2-{(S)-3-[4-(4-Methoxy-3-methyl-benzoyl)-piperidin-1-yl]-2-oxo-pyrrolidin-1-ylmethyl}-3,5,7,8-tetrahydro-pyrano[4,3-d]pyrimidin-4-one] | 6 ± 1 |  |  | 24000 ± 3000 | 4000 ± 1100 | 3 ± 1 | 1.2 ± 1 | 2.1 ± 0.1 | 3 |
| COc1ccc(C(=O)C2CCN(C3CCN(Cc4nc5c(c(=O)[nH]4)CCC5)C3=O)CC2)cc1 (stereo not shown) [Example 21, 2-((3-(4-(4-methoxybenzoyl)piperidin-1-yl)-2-oxopyrrolidin-1-yl)methyl)-6,7-dihydro-3H-cyclopenta[d]pyrimidin-4(5H)-one] | 34 ± 1 |  |  | 29600 ± 2800 | 10700 ± 200 | 17 ± 2 | 1.1 ± 0.17 | 7 ± 2 | 18 |
| CCc1cc(=O)[nH]c(CN2CCC(N3CCC(C(=O)c4ccc(OC)cc4)CC3)C2=O)n1 (stereo not shown) [Example 24, 6-Ethyl-2-{3-[4-(4-methoxy-benzoyl)-piperidin-1-yl]-2-oxo-pyrrolidin-1-ylmethyl}-3H-pyrimidin-4-one] | 115 ± 4 |  |  | > 19000 | > 19000 | 53 ± 5 | 10.4 ± 2.3 | 104 ± 15 | 183 |
| COc1ccc(C(=O)C2CCN(C3CCN(Cc4ncc(C)c(=O)[nH]4)C3=O)CC2)cc1 (stereo not shown) [Example 25, 2-{3-[4-(4-Methoxy-benzoyl)-piperidin-1-yl]-2-oxo-pyrrolidin-1-ylmethyl}-5-methyl-3H-pyrimidin-4-one] | 72 ± 2 |  |  | > 19000 | > 19000 | 36 ± 6 | 3.4 ± 1.5 | 46 ± 3 | 117 |
| COc1ccc(C(=O)C2CCN(C3CCN(Cc4nc(C)c(C)c(=O)[nH]4)C3=O)CC2)cc1 (stereo not shown) [Example 26, 2-{3-[4-(4-Methoxy-benzoyl)-piperidin-1-yl]-2-oxo-pyrrolidin-1-ylmethyl}-5,6-dimethyl-3H-pyrimidin-4-one] | 47 ± 2 |  |  | > 19000 | > 19000 | 26 ± 1 | 4.1 ± 2.1 | 21 ± 3 | 43 |
| COc1ccc(C(=O)C2CCN([C@@H]3CCN(Cc4nc5ccccc(=O)c5[nH]4)C3=O)CC2)cc1 [Example 31, 2-{(R)-3-[4-(4-Methoxy-benzoyl)-piperidin-1-yl]-2-oxo-pyrrolidin-1-ylmethyl}-3H-cycloheptaimidazol-4-one] | 1080 ± 10 |  |  |  | 10100 ± 2600 |  | 65 ± 14 | 89 ± 2 | 85 |
| COc1ccc(C(=O)C2CCN(C3CCN(CC(=O)Nc4nnc5n4CCS5)C3=O)CC2)cc1 (stereo not shown) [Example 32, N-(5,6-dihydrothiazolo[2,3-c][1,2,4]triazol-3-yl)-2-(3-(4-(4-methoxybenzoyl)piperidin-1-yl)-2-oxopyrrolidin-1-yl)acetamide] | 43 ± 1 |  |  | > 19000 | 5090 ± 120 |  |  | 131 ± 8 | 76 |
| COc1ccc(C(=O)C2CCN(C3CCN(CC(=O)Nc4nnc5ccccn45)C3=O)CC2)cc1 (stereo not shown) [Example 35, N-([1,2,4]triazolo[4,3-a]pyridin-3-yl)-2-(3-(4-(4-methoxybenzoyl)piperidin-1-yl)-2-oxopyrrolidin-1-yl)acetamide] | 2470 ± 30 |  |  |  |  | 636 ± 36 | 940 ± 70 | 1890 ± 160 | 2630 |
